From the NIST ThermoML archive (doi:10.1016/j.jct.2015.07.014)
Values joined by “and” are separate entries in the source; they are usually repeats but may differ in a detail not shown here. Equal values may be shown once. Numbers after ± are expanded uncertainties.

Settings: Fluid (supercritical or subcritical phases), Buoyancy - hydrostatic balance with magnetic suspension - one sinker

[Ar] [argon]
Settings | mass density [kg/m3]
298.2 K, 30957 kPa | 499.118 ± 0.25
298.22 K, 26965 kPa | 444.81 ± 0.22
298.22 K, 28963 kPa | 472.591 ± 0.24
298.23 K, 10975 kPa | 185.811 ± 0.11
298.23 K, 12977 kPa | 220.515 ± 0.12
298.23 K, 14975 kPa | 254.862 ± 0.14
298.23 K, 18968 kPa | 321.888 ± 0.17
298.23 K, 20970 kPa | 354.268 ± 0.18
298.23 K, 22969 kPa | 385.599 ± 0.2
298.23 K, 24967 kPa | 415.802 ± 0.21
298.24 K, 16973 kPa | 288.723 ± 0.15
348.19 K, 30960 kPa | 409.077 ± 0.2
348.21 K, 10976 kPa | 153.363 ± 0.077
348.21 K, 19007 kPa | 262.654 ± 0.14
348.21 K, 28963 kPa | 386.293 ± 0.19
348.22 K, 18971 kPa | 262.184 ± 0.14
348.22 K, 28964 kPa | 386.289 ± 0.19
348.23 K, 17005 kPa | 236 ± 0.42
348.24 K, 15014 kPa | 209.051 ± 0.29
348.24 K, 16969 kPa | 235.508 ± 0.42
348.24 K, 26966 kPa | 362.782 ± 1.3
348.24 K, 30961 kPa | 409.019 ± 0.2
348.25 K, 12974 kPa | 181.049 ± 0.34
348.25 K, 32887 kPa | 430.274 ± 0.21
348.26 K, 21009 kPa | 288.719 ± 0.17
348.26 K, 24967 kPa | 338.568 ± 0.87
348.27 K, 14970 kPa | 208.427 ± 0.29
348.27 K, 20969 kPa | 288.199 ± 0.17
348.27 K, 22970 kPa | 313.733 ± 0.19
348.27 K, 26989 kPa | 363.019 ± 1.3
348.28 K, 11019 kPa | 153.917 ± 0.078
348.28 K, 13012 kPa | 181.556 ± 0.34
348.28 K, 25000 kPa | 338.949 ± 0.87
348.29 K, 23010 kPa | 314.199 ± 0.19
397.91 K, 12975 kPa | 155.101 ± 0.085
397.98 K, 14981 kPa | 178.323 ± 0.096
398.1 K, 24969 kPa | 288.472 ± 0.14
398.17 K, 16979 kPa | 201.05 ± 0.11
398.19 K, 30985 kPa | 349.444 ± 0.17
398.2 K, 28999 kPa | 329.764 ± 0.17
398.21 K, 32960 kPa | 368.494 ± 0.18
398.23 K, 26971 kPa | 309.171 ± 0.17
398.23 K, 30962 kPa | 349.179 ± 0.17
398.24 K, 11017 kPa | 132.022 ± 0.076
398.24 K, 19010 kPa | 223.818 ± 0.11
398.25 K, 21010 kPa | 245.897 ± 0.12
398.26 K, 13011 kPa | 155.367 ± 0.085
398.26 K, 23005 kPa | 267.5 ± 0.13
398.28 K, 28964 kPa | 329.33 ± 0.16
398.3 K, 17005 kPa | 201.261 ± 0.11
398.31 K, 15013 kPa | 178.513 ± 0.097
398.35 K, 27004 kPa | 309.394 ± 0.15
398.47 K, 25004 kPa | 288.536 ± 0.14
398.61 K, 18975 kPa | 223.208 ± 0.12
398.87 K, 20975 kPa | 245.092 ± 0.13
398.92 K, 22970 kPa | 266.619 ± 0.14

N#N [nitrogen]
Settings | mass density
298.12 K, 32109 kPa | 311.953 ± 0.15 kg/m3
298.22 K, 30959 kPa | 303.674 ± 0.15 kg/m3
298.23 K, 10976 kPa | 123.118 ± 0.07 kg/m3
298.23 K, 12976 kPa | 144.452 ± 0.079 kg/m3
298.23 K, 16971 kPa | 185.161 ± 0.096 kg/m3
298.23 K, 19010 kPa | 204.785 ± 0.1 kg/m3
298.23 K, 20970 kPa | 222.928 ± 0.11 kg/m3
298.23 K, 22971 kPa | 240.653 ± 0.12 kg/m3
298.23 K, 26968 kPa | 273.675 ± 0.14 kg/m3
298.23 K, 26969 kPa | 273.679 ± 0.14 kg/m3
298.23 K, 28965 kPa | 289.039 ± 0.14 kg/m3
298.23 K, 28966 kPa | 289.035 ± 0.14 kg/m3
298.24 K, 11019 kPa | 123.569 ± 0.07 kg/m3
298.24 K, 13017 kPa | 144.868 ± 0.079 kg/m3
298.24 K, 14976 kPa | 165.17 ± 0.088 kg/m3
298.24 K, 17014 kPa | 185.557 ± 0.096 kg/m3
298.24 K, 18975 kPa | 204.467 ± 0.1 kg/m3
298.24 K, 21004 kPa | 223.219 ± 0.11 kg/m3
298.24 K, 22992 kPa | 240.817 ± 0.12 kg/m3
298.24 K, 24970 kPa | 257.55 ± 0.13 kg/m3
298.24 K, 24971 kPa | 257.546 ± 0.13 kg/m3
298.25 K, 15014 kPa | 165.544 ± 0.088 kg/m3
298.33 K, 30945 kPa | 303.445 ± 0.15 kg/m3
348.21 K, 28966 kPa | 244.176 ± 0.12 kg/m3
348.23 K, 17010 kPa | 154.974 ± 0.11 kg/m3
348.23 K, 32959 kPa | 269.893 ± 0.13 kg/m3
348.24 K, 18974 kPa | 170.907 ± 0.093 kg/m3
348.24 K, 26968 kPa | 230.548 ± 0.12 kg/m3
348.24 K, 28967 kPa | 244.162 ± 0.12 kg/m3
348.25 K, 10981 kPa | 103.086 ± 0.18 kg/m3
348.25 K, 13016 kPa | 121.065 ± 0.07 kg/m3
348.25 K, 22970 kPa | 201.759 ± 0.32 kg/m3
348.25 K, 24970 kPa | 216.421 ± 0.13 kg/m3
348.25 K, 26979 kPa | 230.612 ± 0.12 kg/m3
348.25 K, 30963 kPa | 257.253 ± 0.13 kg/m3 and 257.258 ± 0.13 kg/m3
348.26 K, 15015 kPa | 138.272 ± 0.074 kg/m3
348.26 K, 16972 kPa | 154.648 ± 0.11 kg/m3
348.26 K, 20971 kPa | 186.577 ± 0.31 kg/m3
348.27 K, 11019 kPa | 103.42 ± 0.18 kg/m3
348.27 K, 21013 kPa | 186.886 ± 0.31 kg/m3
348.28 K, 12976 kPa | 120.712 ± 0.069 kg/m3
348.28 K, 14976 kPa | 137.928 ± 0.073 kg/m3
348.28 K, 19011 kPa | 171.174 ± 0.093 kg/m3
348.28 K, 23006 kPa | 202.007 ± 0.32 kg/m3
348.29 K, 25001 kPa | 216.612 ± 0.13 kg/m3
398.17 K, 21012 kPa | 161.802 ± 0.082 kg/m3
398.19 K, 23005 kPa | 175.071 ± 0.088 kg/m3
398.21 K, 27000 kPa | 200.503 ± 0.1 kg/m3
398.22 K, 19011 kPa | 148.062 ± 0.076 kg/m3
398.22 K, 28993 kPa | 212.616 ± 0.1 kg/m3
398.22 K, 32961 kPa | 235.672 ± 0.12 kg/m3
398.23 K, 25002 kPa | 187.957 ± 0.094 kg/m3
398.24 K, 20972 kPa | 161.499 ± 0.082 kg/m3
398.24 K, 26967 kPa | 200.287 ± 0.1 kg/m3
398.24 K, 28966 kPa | 212.445 ± 0.1 kg/m3
398.25 K, 12976 kPa | 104.354 ± 0.057 kg/m3
398.25 K, 22969 kPa | 174.806 ± 0.088 kg/m3
398.26 K, 24969 kPa | 187.737 ± 0.094 kg/m3
398.26 K, 30962 kPa | 224.219 ± 0.11 kg/m3
398.27 K, 30977 kPa | 224.298 ± 0.11 kg/m3
398.28 K, 14977 kPa | 119.222 ± 0.065 kg/m3
398.28 K, 18975 kPa | 147.786 ± 0.076 kg/m3
398.29 K, 16973 kPa | 133.67 ± 0.07 kg/m3
398.3 K, 13014 kPa | 104.623 ± 0.057 kg/m3
398.32 K, 11005 kPa | 89.328 ± 0.051 kg/m3
398.36 K, 17012 kPa | 133.928 ± 0.07 kg/m3
398.39 K, 15006 kPa | 119.391 ± 0.065 kg/m3
